PMC7070694, “Identification of New Peptides from Fermented Milk Showing Antioxidant Properties: Mechanism of Action” (Antioxidants, 2020)
Peptide text beside a SMILES is read from it.

Key:
[1] = MTT cell viability (cytotoxicity); assay type: cell-based; settings: human, Caco-2 cells (1 × 10^4), synthetic peptides 0.05 mg/mL, no TbOOH, mean ± SD of at least three experiments, read-out: Percentage of Cell Viability, None (c)
Caco-2 cell monolayer = assay: Transepithelial transport through Caco-2 cell monolayers (Transwell); assay type: in vitro ADME; settings: Caco-2 monolayer on Transwell, 21 days, TEER > 1100 Ω × cm^2, 75 µg peptide in 0.75 mL HBSS apical, 37 °C, RP-HPLC UV 220 nm, mean ± SD, n. d. = not detected with RP-HPLC
Description: Caco-2 cells were obtained from DISCOG (University of Padova, Padova, Italy). The cells cultured in DMEM (high glucose) supplemented with 10% FBS, were used between 35 and 60 passages. In order to perform transepithelial transport, 8 × 10^4 cells were seeded on Transwell^© cell culture inserts (0.4 µm pore sizes, 12 mm diameter, 1.12 cm^2 grown surface; Corning Life Sciences, Tewksbury, MA, USA). Cells were grown, differentiated for 21 days and the monolayer integrity was estimated by transepithelial electrical resistance (TEER) (Millicell® ERS-2 volt-ohmmeter, EDM Millipore, Darmstadt, Germany) showing values higher than 1100 Ω × cm^2.
The intestinal barrier crossing capacity of the fractions or synthetic peptides through Caco-2 cells monolayer was evaluated using Transwell® insert model according to Tonolo et al.. Briefly, after 21 days of culturing, Caco-2 cells differentiated forming a monolayer that delimited an upper part (apical compartment) and lower part (basolateral compartment). The monolayer was rinsed three times with Hank’s balanced salt solution (HBSS) and 10 mM D-glucose and equilibrated for 30 min at 37 °C. After, cells were incubated in the presence of 0.75 mL HBSS containing 150 µg fraction or 75 µg peptide in the apical chamber at 37 °C for 120 min. Samples collected from both compartments (apical and basolateral) at different times were centrifuged at 11,600× g, filtered with 0.45 µm filter, frozen and lyophilized. Subsequently, the obtained samples were dissolved in 100 µL of 0.1% TFA aqueous solution and evaluated by RP-HPLC and Matrix assisted laser desorption/ionization- time of flight/time of flight mass spectrometry (MALDI-TOF/TOF MS).
The apical and basolateral compartments were evaluated in RP-HPLC using a column Onyx Monolithic C18 100 mm × 4.6 mm, LC column (Phenomenex, Torrance, CA, USA) with a Waters 2695 Separation Module (Milfold, MA, USA) with a Waters 996 Photodiode Array Detector. Separations were performed with a linear gradient from 0–60% ACN in the presence of 0.1% TFA over 20 min at a constant flow rate of 2 mL/min monitoring the peaks by UV detection (λ = 220 nm).
Subsequently, the obtained fractions were analysed with a MALDI-TOF/TOF 4800 mass spectrometer (AB Sciex, Framingham, MA, USA). After an initial full MS scan, enlargements on the MS signals of interest were acquired. For the basolateral fractions, the samples, after lyophilisation, were dissolved in 50 µL of 25% ACN and 0.1% TFA. The analysis was then performed on 2 µL of these solutions mixed with 2 µL of peptide MALDI matrix α-cyano-4-hydroxycynnamic acid (10 mg/mL aqueous 70% acetonitrile/0.1% TFA). The following analytical conditions were set for MALDI-TOF spectra acquisition: positive ion reflector mode, initial mass range 500–3500 Da (the mass range was then adapted for each enlargement), variable laser intensity (3000–3800), shots/sub-spectrum 50, total shots/spectrum 1500 and accelerating voltage of 20 kV. Final data analysis and fragments identification were done on Data Explorer software (AB Sciex, Framingham, MA, USA), utilizing external mass calibration performed with mass peptide standards (Sigma-Aldrich, St Louis, MO, USA).
In order to evaluate the intestinal crossing capacity of the four peptides, Transwell® insert model peptide absorption, was performed. […] After 10 min and 120 min, apical and basolateral compartments were collected and analyzed by RP-HPLC and mass spectrometry.

## CC[C@H](C)[C@H](NC(=O)[C@@H]1CCCN1C(=O)[C@H](CC(N)=O)NC(=O)[C@@H]1CCCN1C(=O)[C@@H](NC(=O)[C@H](CC(=O)O)NC(=O)[C@H](CO)NC(=O)[C@H](Cc1ccccc1)NC(=O)[C@H](CO)NC(=O)[C@@H]1CCCN1C(=O)[C@H](C)N)[C@@H](C)CC)C(=O)NCC(=O)N[C@@H](CO)C(=O)N[C@@H](CCC(=O)O)C(=O)N[C@@H](CC(N)=O)C(=O)N[C@@H](CO)C(=O)N[C@@H](CCC(=O)O)C(=O)O [A-17-E] (H-APSFSDIPNPIGSENSE-OH)
[1]
  viability at 24 h, 50 µg/mL: 108 ± 13.2%
Caco-2 cell monolayer; 120 min after 30 min equilibration, apical compartment, % of total peptide added
  RP-HPLC Estimation AP (%): 68.4 ± 4.6%
Caco-2 cell monolayer; A-B, 120 min, basolateral compartment, % of initial peptide added apically
  RP-HPLC Estimation BL (%): 0.05 ± 0.03%
